What was measured:
blackgrass = test: Test A postemergence herbicide test; type: in vivo, Alopecurus myosuroides
How it was run: (§1)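 Ratings compare treated with untreated plants roughly 10 days after a postemergence application made at the one- to two-leaf stage. Scoring uses 0–100, where 0 means no effect and 100 complete control.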

sedge, umbrella [1] = test: Test C flooded paddy test; type: in vivo, Cyperus difformis; details: Flood
How it was run: (§2)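 Visual injury scored against controls after 13 to 15 days in the greenhouse, using 0 (no effect) to 100 (complete control). Test compounds went straight into paddy water held 3 cm above the soil surface on 2-leaf-stage plants, with that flood depth maintained for the whole test.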

rice [2] = test: Test B flooded paddy test; type: in vivo, Oryza sativa; details: Flood, scale of 0 to 100 where 0 is no effect and 100 is complete control
How it was run: (§3)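 First, plants reach the 2-leaf stage; next, pots are flooded to 3 cm and compound is delivered into the water; finally, after 13 to 15 greenhouse days at constant depth, injury is graded visually from 0 to 100 against controls.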

ducksalad [3] = test: Test B flooded paddy test; type: in vivo, Heteranthera limosa; details: Flood, scale of 0 to 100 where 0 is no effect and 100 is complete control
How it was run: as §3

corn = test: Test A pre-/postemergence herbicide test; type: in vivo, Zea mays; details: Postemergence
How it was run: (§4)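 Both application timings used compounds in a non-phytotoxic solvent plus surfactant. Pre-emergence: soil sprayed directly after seeding into loam/sand. Post-emergence: foliage of 2–10 cm seedlings (1–2 leaves) sprayed. Injury rated ~10 days later, 0–100.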

barnyardgrass [4] = test: Test B flooded paddy test; type: in vivo, Echinochloa crus-galli; details: Flood, scale of 0 to 100 where 0 is no effect and 100 is complete control
How it was run: as §3

galium = test: Test A postemergence herbicide test; type: in vivo, Galium aparine; details: for Plant response rating, Galium: 125 g ai/ha
How it was run: as §1

barnyardgrass [5] = test: Test C flooded paddy test; type: in vivo, Echinochloa crus-galli; details: Flood
How it was run: as §2

kochia = test: Test A pre-/postemergence herbicide test; type: in vivo, Kochia scoparia
How it was run: as §4

barnyardgrass [6] = test: Test A pre-/postemergence herbicide test; type: in vivo, Echinochloa crus-galli
How it was run: as §4

sedge, umbrella [7] = test: Test B flooded paddy test; type: in vivo, Cyperus difformis; details: Flood, scale of 0 to 100 where 0 is no effect and 100 is complete control
How it was run: as §3

ragweed = test: Test A pre-/postemergence herbicide test; type: in vivo, Ambrosia elatior
How it was run: as §4

wheat = test: Test A pre-/postemergence herbicide test; type: in vivo, Triticum aestivum; details: Postemergence; for Plant response rating, Wheat: 125 g ai/ha
How it was run: as §4

giant foxtail = test: Test A pre-/postemergence herbicide test; type: in vivo, Setaria faberii
How it was run: as §4

pigweed = test: Test A pre-/postemergence herbicide test; type: in vivo, Amaranthus retroflexus
How it was run: as §4

rice [8] = test: Test C flooded paddy test; type: in vivo, Oryza sativa; details: Flood
How it was run: as §2

ducksalad [9] = test: Test C flooded paddy test; type: in vivo, Heteranthera limosa; details: Flood
How it was run: as §2

ryegrass, Italian = test: Test A pre-/postemergence herbicide test; type: in vivo, Lolium multiflorum
How it was run: as §4

[10] = 125 g ai/ha, 0 to 100 scale, 0 is no effect, 100 is complete control
[11] = 125 g ai/ha, scale of 0 to 100 where 0 is no effect and 100 is complete control, 13 to 15 days
[12] = 250 g ai/ha, scale of 0 to 100 where 0 is no effect and 100 is complete control, 13 to 15 days
[13] = 0 to 100 scale, 0 is no effect, 100 is complete control
[14] = 125 g ai/ha, visual rating, 0 to 100 scale, 0 no effect, 100 complete control, approximately 10 days, preemergence
[15] = Postemergence, 125 g ai/ha, 0 to 100 scale, 0 is no effect, 100 is complete control
[16] = preemergence, 500 g ai/ha, 0 to 100 scale, 0 is no effect and 100 is complete control
[17] = 125 g ai/ha, visual rating on 0 to 100 scale (0 no effect, 100 complete control), approx. 10 days
[18] = 500 g ai/ha, 0 to 100 scale (0 no effect, 100 complete control)
[19] = visual rating on 0 to 100 scale (0 no effect, 100 complete control), approx. 10 days
[20] = Postemergence, 125 g ai/ha, visual rating on 0 to 100 scale (0 no effect, 100 complete control), approx. 10 days
[21] = Preemergence, 125 g ai/ha, 0 to 100 scale where 0 is no effect and 100 is complete control
[22] = Preemergence, 500 g ai/ha, visual rating on 0 to 100 scale (0 no effect, 100 complete control)
[23] = Postemergence, 500 g ai/ha, 0 to 100 scale (0 no effect, 100 complete control)

CC(C)(C)c1cccc(C2CNC(=O)C2C(=O)Nc2cccc(F)c2F)c1 (racemic) [Compound 200]
Plant response rating, Blackgrass (blackgrass; [10]): 0 | Blackgrass plant response rating (0 to 100 scale, 0 is no effect, 100 is complete control) (blackgrass; 500 g ai/ha): 0 | Plant response rating, Sedge, Umbrella (sedge, umbrella [1]; [11]): 0 | Plant response rating, Sedge, Umbrella (sedge, umbrella [1]; [12]): 0 | Plant response rating, Sedge, Umbrella (sedge, umbrella [1]; 500 g ai/ha, scale 0 to 100): 0 | Plant response rating, Sedge, Umbrella (sedge, umbrella [1]; 1000 g ai/ha, scale 0 to 100): 0 | Plant response rating, Rice (rice [2]; 1000 g ai/ha): 15 | Plant response rating, Ducksalad (ducksalad [3]; 1000 g ai/ha): 95 | Plant response rating, Corn (corn; [10]): 0 | Corn plant response rating (0 to 100 scale, 0 is no effect, 100 is complete control) (corn; 500 g ai/ha): 20 | Plant response rating, Barnyardgrass (barnyardgrass [4]; 1000 g ai/ha): 85 | Plant response rating, Galium (galium; [13]): 0 | Galium plant response rating (0 to 100 scale, 0 is no effect, 100 is complete control) (galium; 500 g ai/ha): 0 | Plant response rating, Barnyardgrass (barnyardgrass [5]; [11]): 15 | Plant response rating, Barnyardgrass (barnyardgrass [5]; [12]): 25 | Plant response rating, Barnyardgrass (barnyardgrass [5]; 500 g ai/ha, scale 0 to 100): 40 | Plant response rating, Barnyardgrass (barnyardgrass [5]; 1000 g ai/ha, scale 0 to 100): 55 | Plant response rating, Kochia (kochia; [14]): 0 | Plant response rating, Kochia (kochia; [15]): 0 | Kochia plant response rating (0 to 100 scale, 0 is no effect, 100 is complete control) (kochia; Postemergence, 500 g ai/ha): 0 | Plant response rating, Kochia (kochia; [16]): 0 | Plant response rating, Barnyardgrass (barnyardgrass [6]; [14]): 60 | Plant response rating, Barnyardgrass (barnyardgrass [6]; [15]): 70 | Barnyardgrass plant response rating (0 to 100 scale, 0 is no effect, 100 is complete control) (barnyardgrass [6]; Postemergence, 500 g ai/ha): 90 | Plant response rating, Barnyardgrass (barnyardgrass [6]; [16]): 90 | Plant response rating, Sedge, Umbrella (sedge, umbrella [7]; 1000 g ai/ha): 0 | Plant response rating, Ragweed (ragweed; [14]): 0 | Plant response rating, Ragweed (ragweed; [15]): 0 | Ragweed plant response rating (0 to 100 scale, 0 is no effect, 100 is complete control) (ragweed; Postemergence, 500 g ai/ha): 0 | Plant response rating, Ragweed (ragweed; [16]): 0 | Plant response rating, Wheat (wheat; [13]): 0 | Wheat plant response rating (0 to 100 scale, 0 is no effect, 100 is complete control) (wheat; 500 g ai/ha): 20 | Plant response rating, Foxtail, Giant (giant foxtail; [14]): 30 | Plant response rating, Foxtail, Giant (giant foxtail; [15]): 20 | Foxtail, Giant plant response rating (0 to 100 scale, 0 is no effect, 100 is complete control) (giant foxtail; Postemergence, 500 g ai/ha): 40 | Plant response rating, Foxtail, Giant (giant foxtail; [16]): 80 | Plant response rating, Pigweed (pigweed; [14]): 0 | Plant response rating, Pigweed (pigweed; [15]): 0 | Pigweed plant response rating (0 to 100 scale, 0 is no effect, 100 is complete control) (pigweed; Postemergence, 500 g ai/ha): 0 | Plant response rating, Pigweed (pigweed; [16]): 0 | Plant response rating, Rice (rice [8]; [11]): 0 | Plant response rating, Rice (rice [8]; [12]): 0 | Plant response rating, Rice (rice [8]; 500 g ai/ha, scale 0 to 100): 0 | Plant response rating, Rice (rice [8]; 1000 g ai/ha, scale 0 to 100): 0 | Plant response rating, Ducksalad (ducksalad [9]; [11]): 70 | Plant response rating, Ducksalad (ducksalad [9]; [12]): 70 | Plant response rating, Ducksalad (ducksalad [9]; 500 g ai/ha, scale 0 to 100): 100 | Plant response rating, Ducksalad (ducksalad [9]; 1000 g ai/ha, scale 0 to 100): 100 | Plant response rating, Ryegrass, Italian (ryegrass, Italian; [14]): 0 | Plant response rating, Ryegrass, Italian (ryegrass, Italian; [15]): 0 | Ryegrass, Italian plant response rating (0 to 100 scale, 0 is no effect, 100 is complete control) (ryegrass, Italian; Postemergence, 500 g ai/ha): 0 | Plant response rating, Ryegrass, Italian (ryegrass, Italian; [16]): 0

O=C1NCC(c2ccc(OC(F)F)cc2)C1C(=O)Nc1ccccc1F (stereo not shown) [Compound 349]
Plant response rating, Blackgrass (blackgrass; [17]): 20 | Plant response rating, Blackgrass (blackgrass; [18]): 40 | Plant response rating, Rice (rice [2]; 500 g ai/ha): 0 | Plant response rating, Ducksalad (ducksalad [3]; 500 g ai/ha): 90 | Plant response rating, Corn (corn; [17]): 0 | Plant response rating, Corn (corn; [18]): 20 | Plant response rating, Barnyardgrass (barnyardgrass [4]; 500 g ai/ha): 40 | Plant response rating, Galium (galium; [19]): 20 | Plant response rating, Kochia (kochia; [20]): 40 | Plant response rating, Kochia (kochia; [21]): 50 | Kochia plant response rating (kochia; [22]): 80 | Plant response rating, Barnyardgrass (barnyardgrass [6]; [20]): 80 | Plant response rating, Barnyardgrass (barnyardgrass [6]; [23]): 90 | Plant response rating, Barnyardgrass (barnyardgrass [6]; [21]): 70 | Barnyardgrass plant response rating (barnyardgrass [6]; [22]): 90 | Plant response rating, Sedge, Umbrella (sedge, umbrella [7]; 500 g ai/ha): 0 | Plant response rating, Ragweed (ragweed; [20]): 0 | Plant response rating, Ragweed (ragweed; [21]): 0 | Ragweed plant response rating (ragweed; [22]): 40 | Plant response rating, Wheat (wheat; [19]): 0 | Plant response rating, Foxtail, Giant (giant foxtail; [20]): 60 | Plant response rating, Foxtail, Giant (giant foxtail; [23]): 90 | Plant response rating, Foxtail, Giant (giant foxtail; [21]): 80 | Foxtail, Giant plant response rating (giant foxtail; [22]): 90 | Plant response rating, Pigweed (pigweed; [20]): 0 | Plant response rating, Pigweed (pigweed; [21]): 0 | Pigweed plant response rating (pigweed; [22]): 40 | Plant response rating, Ryegrass, Italian (ryegrass, Italian; [20]): 0 | Plant response rating, Ryegrass, Italian (ryegrass, Italian; [21]): 0 | Ryegrass, Italian plant response rating (ryegrass, Italian; [22]): 0

Reference: patent US10294202B2, “Pyrrolidinones as herbicides” (FMC Corporation, priority 2013, dated 2019)
